Measurements: patent publication US9908863B2, “Piperidinylcarbazoles” (Merck Patent GmbH, priority 2013, dated 2018)
Structures can show the parent of a compound that is named as a salt.

Tested on: Chloroquine/Pyrimethamine resistant Plasmodium falciparum K1
Assay: In vitro sensitivity assay: Plasmodium falciparum by 3H-hypoxanthine incorporation
Format: cell-based
Conditions: Erythrocyte, P. falciparum K1 strain in human red blood cells, 3H-hypoxanthine incorporation, read-out: IC50 K1 in vitro
Experimental: Biological Test 1: In Vitro Sensitivity Assays: Plasmodium falciparum by ^3H-Hypoxanthine Incorporation.
The strain used for this assay is the Chloroquine/Pyrimethamine resistant Plasmodium falciparum K1 and drugs such as Chloroquine (10 mg/mL stock; start concentration 1000 ng/mL) and Artemisinine (Qinghaosu) (5 mg/mL stock; start concentration 10 ng/mL) were used as standards. Human red blood cells were used as host cells and the activity was measured using a ^3H-hypoxanthine incorporation assay.
Into a Costar™ 96-well microtitre plates, 100 μL of medium (RPMI 1640 without hypoxanthine 10.44 g/L, HEPES 5.94 g/L, Albumax® 5 g/L, Neomycin 10 mL/L, NaHCO3 2.1 g/L) were added to the wells of row containing drugs available from stock solutions of 10 mg/mL in DMSO (compounds were kept at −20° C. Since DMSO is toxic, care had to be taken not to exceed a final concentration of 0.5% DMSO). Then 100 μL of medium were added at rt to all wells of the plate. By means of a 12-well multi-pipette serial drug dilutions were prepared. A serial dilution factor of 1:2 is thus obtained. One row of wells without drugs served as controls. Next 100 μL of medium+washed human red blood cells A+(RBC) was added to the last 4 wells of the first row; these columns serve as background controls (that may be caused by 3H-hypoxanthine incorporation into RBC without the parasite). Into the remaining wells, 100 μL of medium+RBC+P. falciparum mix was added. The plates were placed for 48 h into a chamber at 37° C. gassed with a 4% CO2, 3% O2, 93% N2 mix. Finally 50 μL of medium+3H-hypoxanthine [(500 μL ^3H-hypoxanthine stock+500 μL EtOH+49 mL medium (0.5 μCi)] was added to each well and the plates were put back at 37° C. for 24 h into the chamber and gassed with a 4% CO2, 3% O2, 93% N2 mix. The plates were then read using the Cell Harvester and the data were transferred into a graphic program (Excel) and are evaluated to determine the IC50 by linear interpolation.

| SMILES | IC50 [µM] |
| --- | --- |
| O[C@H]1CCN(C2CCCCC2)C[C@@H]1n1c2ccc(Cl)cc2c2cc(Cl)ccc21 (racemic) [Compound 14] | 0.013 |

Same assay, conditions: K1, Erythrocyte, read-out: IC50 K1 in vitro

| SMILES | IC50 [µM] |
| --- | --- |
| O[C@H]1CNCC[C@@H]1n1c2ccccc2c2ccccc21 [Compound 16, (3S,4S)-4-Carbazol-9-yl-piperidin-3-ol hydrochloride salt] | 0.364 |
| O[C@@H]1CNCC[C@H]1n1c2ccccc2c2ccccc21 [Compound 15, (3R,4R)-4-Carbazol-9-yl-piperidin-3-ol hydrochloride salt] | 0.383 |
| F[C@@H]1CNCC[C@@H]1n1c2ccc(Cl)cc2c2cc(Cl)ccc21 [Compound 11, 3,6-Dichloro-9-((3R,4S)-3-fluoro-piperidin-4-yl)-9H-carbazole hydrochloride salt] | 1.15 |
| O[C@@H]1CNCC[C@H]1n1c2ccc(F)cc2c2cc(F)ccc21 [Compound 10, (3R,4R)-4-(3,6-Difluoro-carbazol-9-yl)-piperidin-3-ol hydrochloride salt] | 0.033 |

Tested on: P. falciparum strain NF54
Assay: P. falciparum growth assay ([3H] hypoxanthine incorporation)
Format: cell-based
Conditions: Plasmodium falciparum; P. falciparum NF54 strain, 72 h incubation, [3H]hypoxanthine incorporation; read-out: IC50 NF54
Experimental: • Cultivation of P. falciparum:
P. falciparum strain NF54 was obtained from the Research and Reference Reagent
Resource Center (MR4) (Manassas, Va.). The two strains were maintained in vitro by a modification of the method of Trager and Jensen. Cultures were maintained in A positive (A+) human erythrocytes suspended at 5% hematocrit in complete medium. 5 g albumax II (Gibco-Invitrogen, Cat No#11021037), 2.5 mg gentamicin (Sigma Aldrich), 25 mM HEPES (Invitrogen), 5 mg hypoxanthine (Sigma), and 1 L of RPMI 1640 (Invitrogen, Cat No#11875085). Cultures were grown in 100 mm petri-dishes (BD Falcon) at a volume of 15 mL and were kept in a standard gas environment of 4% CO2 and 3% 02 at temperature 37° C. in a tri-gas incubator (Cat#3131, Thermo Scientific Forma Series II Water Jacketed). Parasite growth and morphology were observed daily using thin smears at 100× (oil immersion) magnification following staining with Geimsa stain. • P. falciparum growth assay:
The protocol assesses the compound efficacy against the growth of P. falciparum in-vitro.
Parasite growth was detected in assay by the traditional [3H] hypoxanthine incorporation assay as previously described by Desjardins and colleagues (Antimicrob. Agents Chemother., 16(6), 710, 1979). To perform the [3H] hypoxanthine incorporation assay, the new antimalarial agents were serially diluted 1:1 into hypoxanthine-free complete medium to a final volume of 100 μL (final antimalarial agent concentration range, 10,000 nM to 4.8 nM may change in special case) in 96 well sterile cell culture plates. […] All cultures used in the study are albumax II adopted. The microtiter plates were incubated in chamber in a standard gas environment at 37° C. for 72 h. After 48 h of incubation and prior to addition of 50 μL (0.5 μCi/well) 3H-Hypoxanthine (specific activity, 20 Ci/mmol, Conc. 1.0 mCi/ml; American Radiolabeled Chemicals, Inc., St. Louis, Mo.), culture growth was assessed by making the smears that ensures the culture has grown in % p and assay plate is further incubated for 24 h. Following the incubation period, the plates were harvested with a FilterMate cell harvester (Perkin Elmer) onto unifilter-96 GF/B plates, washed with distilled water to remove excess radiochemical and plates were kept for drying 37° C. overnight or 60° C. for 1 h. 50 μL of Microscint scintillation cocktail (Microscint-High Efficiency LSC-Cocktail; Perkin Elmer) added in the unifilter-96 GF/B plates and kept for 15-20 min. The plates were counted in a Top Count NXT microplate scintillation and luminescence counter (Perkin Elmer). The mean values for [3H]hypoxanthine incorporation in parasitized control and non-parasitized control erythrocytes were calculated.
Assay data were analyzed using Graph pad prism ver.5 software. A variable sigmoid dose response curve is plotted keeping log concentrations at X-axis and % inhibition at Y-axis.

| SMILES | IC50 [µM] |
| --- | --- |
| O[C@H]1CCN(Cc2ccccc2)C[C@@H]1n1c2ccc(F)cc2c2cc(F)ccc21 (single isomer, unassigned) [Compound 43] | 0.91 |
| O[C@@H]1CCN(CC2(C(F)(F)F)CC2)C[C@H]1n1c2ccc(F)cc2c2cc(F)ccc21 [Compound 53, (3R,4R)-3-(3,6-difluoro-9H-carbazol-9-yl)-1-((1-(trifluoromethyl)cyclopropyl)methyl)piperidin-4-ol] | 0.0736 |
| O[C@@H]1CNCC[C@H]1n1c2ccc(Cl)cc2c2cc(Cl)cnc21 (single isomer, unassigned) [Compound 20] | 0.124 |
| O[C@@H]1CN(Cc2ccccc2)CC[C@H]1n1c2ccc(F)cc2c2cc(F)ccc21 (relative stereo) [Compound 41, trans-1-benzyl-4-(3,6-difluoro-9H-carbazol-9-yl)piperidin-3-ol] | 0.28 |
| O[C@@H]1CNCC[C@H]1n1c2ccc(F)cc2c2cc(F)ccc21 (racemic) [Compound 62] | 0.263 |
| O[C@@H]1CCN(CC2CC2)C[C@H]1n1c2ccc(F)cc2c2cc(F)ccc21 [Compound 50, (3R,4R)-1-(cyclopropylmethyl)-3-(3,6-difluoro-9H-carbazol-9-yl)piperidin-4-ol] | 0.29 |
| O[C@@H]1CCN(CCC(F)(F)F)C[C@H]1n1c2ccc(Cl)cc2c2cc(Cl)ccc21 [Compound 54, (3R,4R)-3-(3,6-dichloro-9H-carbazol-9-yl)-1-(3,3,3-trifluoropropyl)piperidin-4-ol] | 0.0282 |
| CC(C)(C)OC(=O)N1CC[C@@H](O)[C@H](n2c3ccc(F)cc3c3cc(F)ccc32)C1 (racemic) [Compound 44, trans-tert-butyl 3-(3,6-difluoro-9H-carbazol-9-yl)-4-hydroxypiperidine-1-carboxylate] | 0.792 |
| O[C@@H]1CCNC[C@H]1n1c2ccc(Cl)cc2c2cc(Cl)ccc21 (single isomer, unassigned) [Compound 66] | 1.69 |
| O[C@@H]1CCN(Cc2ccccc2)C[C@H]1n1c2ccc(F)cc2c2cc(F)ccc21 (single isomer, unassigned) [Compound 42] | 0.0798 |
| O[C@@H]1CCN(CCC(F)(F)F)C[C@H]1n1c2ccc(Cl)cc2c2cc(Cl)cnc21 [Compound 57, (3R,4R)-3-(3,6-dichloro-9H-pyrido[2,3-b]-indol-9-yl)-1-(3,3,3-trifluoropropyl)piperidin-4-ol] | 2.23 |
| CC(C)(C)OC(=O)N1CC[C@@H](O)[C@H](n2c3ccc(F)cc3c3cc(F)ccc32)C1 (single isomer, unassigned) [Compound 47] | 0.576 |
| O[C@@H]1CCNC[C@H]1n1c2ccc(C(F)(F)F)cc2c2cc(C(F)(F)F)ccc21 (racemic) [Compound 59, trans-3-(3,6-bis(trifluoromethyl)-9H-carbazol-9-yl)piperidin-4-ol] | 1.3 |
| O[C@@H]1CCNC[C@H]1n1c2ccc(Cl)cc2c2cc(Cl)cnc21 (single isomer, unassigned) [Compound 55] | 3.6 |
| CC(C)(C)OC(=O)N1CC[C@H](O)[C@@H](n2c3ccc(F)cc3c3cc(F)ccc32)C1 (single isomer, unassigned) [Compound 48] | 1.26 |
| O[C@@H]1CN(CCC(F)(F)F)CC[C@H]1n1c2ccc(Cl)cc2c2cc(Cl)cnc21 [Compound 58, (3R,4R)-4-(3,6-dichloro-9H-pyrido[2,3-b]indol-9-yl)-1-(3,3,3-trifluoropropyl)piperidin-3-ol] | 0.724 |
| CC(C)(C)OC(=O)N1CC[C@@H](n2c3ccc(F)cc3c3cc(F)ccc32)[C@H](O)C1 (racemic) [Compound 46, trans-tert-butyl 4-(3,6-difluoro-9H-carbazol-9-yl)-3-hydroxypiperidine-1-carboxylate] | 1.33 |
| O[C@H]1CNCC[C@@H]1n1c2ccc(Cl)cc2c2cc(Cl)cnc21 (single isomer, unassigned) [Compound 19] | 0.0934 |
| O[C@@H]1CNCC[C@H]1n1c2ccc(C(F)(F)F)cc2c2cc(C(F)(F)F)ccc21 (racemic) [Compound 68, trans-4-(3,6-bis(trifluoromethyl)-9H-carbazol-9-yl)piperidin-3-ol] | 0.0222 |
| O[C@@H]1CCN(CCCC(F)(F)F)C[C@H]1n1c2ccc(F)cc2c2cc(F)ccc21 [Compound 49, (3R,4R)-3-(3,6-difluoro-9H-carbazol-9-yl)-1-(4,4,4-trifluorobutyl)piperidin-4-ol] | 0.0336 |
| O[C@@H]1CCN(CCc2ccccc2)C[C@H]1n1c2ccc(F)cc2c2cc(F)ccc21 [Compound 52, (3R,4R)-3-(3,6-difluoro-9H-carbazol-9-yl)-1-phenethylpiperidin-4-ol] | 0.169 |
| O[C@@H]1CNCC[C@H]1n1c2ccc(C(F)(F)F)cc2c2cc(C(F)(F)F)ccc21 [Compound 60, (3R,4R)-4-(3,6-bis(trifluoromethyl)-9H-carbazol-9-yl)piperidin-3-ol] | 0.0205 |
| O[C@@H]1CCN(Cc2ccccc2)C[C@H]1n1c2ccc(F)cc2c2cc(F)ccc21 (relative stereo) [Compound 63, trans-1-benzyl-3-(3,6-difluoro-9H-carbazol-9-yl)piperidin-4-ol] | 0.233 |
| O[C@H]1CNCC[C@@H]1n1c2ccc(C(F)(F)F)cc2c2cc(C(F)(F)F)ccc21 [Compound 61, (3S,4S)-4-(3,6-bis(trifluoromethyl)-9H-carbazol-9-yl)piperidin-3-ol] | 0.0205 |
| O[C@@H]1CCN(CCC(F)(F)F)C[C@H]1n1c2ccc(F)cc2c2cc(F)ccc21 [Compound 45, (3R,4R)-3-(3,6-difluoro-9H-carbazol-9-yl)-1-(3,3,3-trifluoropropyl)piperidin-4-ol] | 0.096 |
| CC(C)(C)CN1CC[C@@H](O)[C@H](n2c3ccc(F)cc3c3cc(F)ccc32)C1 [Compound 51, (3R,4R)-3-(3,6-difluoro-9H-carbazol-9-yl)-1-neopentylpiperidin-4-ol] | 0.555 |
